Source: patent US8129349B2, “Treatment of disease by inducing cell apoptosis” (The Regents of the University of California, priority 2000, dated 2012)
Each block holds one molecule with its values, some of them ahead of it. Non-standard residues stand in square brackets, D forms with d. pT = C[C@@H](OP(=O)(O)O)[C@H](N)C(=O)O

Legend:
caspase 8 = biological target: T1, caspase 8 (Homo sapiens, UniProt Q14790); experiment: In vitro self-activation of recombinant caspase 8; format: biochemical; details: peptides 200 μM, 2 h, procaspase 8 (0.2 μg), colorimetric substrate
T1 construct: 21 amino acid linker (vector-derived) (N); purchased Alexis Biochemicals 201-041-C005
Experimental: (§1) FIG. 5 provides results showing the direct association of C/EBPβ-Glu^217 with procaspases 1 and 8. […] Enzyme activity was measured in the absence (control) or presence of C/EBPβ peptides (200 μM) for 2 h, using a procaspases 1 (1U) (not shown) and 8 (0.2 μg) activity assay. Values are presented as the mean±one half the range of duplicates. Panel C provides results for cells cultured on a collagen type I matrix and incubated with the indicated cell permeant, purified synthetic N-acetyl, C-aldehyde C/EBPβ tetra-peptides (10 μM) or with recombinant C/EBPβ-HA peptides as indicated, together with the Chariot reagent (Active Motif) for 4 h. Control cells were incubated without peptides (P<0.05 for all peptides containing Ala^217).
(§2) FIG. 7 provides data showing that phosphorylation of rat C/EBPβ on Ser^105 prevents stellate cell apoptosis. Panel A provides results for mouse stellate cells transfected as described herein (See, FIG. 2), with mutant p90RSK or treated with lactacystin (10 μM) (closed bars), and co-transfected with CMV-rC/EBPβ-Asp^105 (1 μg each) (open bars) as indicated. Annexin-V-PE binding was determined as described for FIG. 2 (P<0.05 for rC/EBPβ-Asp^105). Panel B provides results of an annexin-V-PE assay for stellate cells from C/EBPβ^+/+ (closed circles) and rC/EBPβ-Asp^105 transgenic (open circles) mice treated with lactacystin (0-30 μM). The annexin-V-PE assay was performed 6 hours after treatment began (P<0.05 for rC/EBPβ-Asp^105 transgenic mice for 5-25 μM lactacystin). Panel C provides results for rC/EBPβ-HA constructs (0.3 μg) transfected into rat stellate cells. The expressed peptides were immunoprecipitated with anti-HA antibodies. Using a specific antibody, rCEBPβ-PSer^105 was detected only in cells that expressed wild-type rC/EBPβ. […] Reciprocal immunoprecipitations confirmed these associations. […] Enzyme activity was measured using a colorimetric substrate as described in the Examples. […]
(§3) Purified recombinant C/EBPβ peptides, expressed as known in the art (See, Descombes et al., supra; and Buck et al. (1994), supra), and purified synthetic N-acetyl, C-aldehyde tetrapeptides (200 μM) (American Peptide Company) were assayed for their ability to inhibit the activity of purified human recombinant caspases 1 (catalogue # 201-056) and 8 (catalogue # 201-041-C005) (Alexis Biochemicals). […] Caspase activity was determined by the release of the p-nitroaniline colorimetric (Alexis Biochemicals) substrate for caspase 1 (catalogue # 260-026) or 8 (catalogue # 260-045) within the linear part of the kinetic assay (Thornberry et al. (1997), supra; Stennicke and Salvesen, supra). […]

[1] = tested on: stellate cells from C/EBPβ−/− mice; experiment: Rescue from apoptosis of stellate cells from C/EBPβ−/− mice by cell permeant tetrapeptides; format: cell-based, mouse; details: C/EBPβ−/− cells activated by collagen type I, tetrapeptides 10 μM, Chariot reagent, 4 hours
caspase 1 = biological target: T2, caspase 1 (Homo sapiens, UniProt P29466); experiment: In vitro self-activation of recombinant caspase 1; format: biochemical; details: peptides 200 μM, 2 h, procaspase 1 (1U)
T2 construct: purchased Alexis Biochemicals 201-056
T2 sequence (P29466 120-404): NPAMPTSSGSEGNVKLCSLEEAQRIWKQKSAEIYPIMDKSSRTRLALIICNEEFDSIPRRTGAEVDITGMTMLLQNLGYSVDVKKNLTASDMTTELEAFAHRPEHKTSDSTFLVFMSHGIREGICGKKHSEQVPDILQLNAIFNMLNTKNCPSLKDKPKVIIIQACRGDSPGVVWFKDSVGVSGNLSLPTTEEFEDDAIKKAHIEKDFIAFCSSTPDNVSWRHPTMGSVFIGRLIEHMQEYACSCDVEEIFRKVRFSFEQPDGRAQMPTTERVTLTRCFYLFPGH
Experimental: as §1
as §3, with “Biochemicals). The sequence of caspase 8 includes Ser217 through Asp479 cloned into an expression vector containing a 21 amino acid linker at the N-terminus. Thus, the prodomain (first 220 amino acids) is essentially missing.” for “Biochemicals).”
To delineate the role of C/EBPβ on the activation of procaspases 1 and 8, the self-activation of recombinant procaspases 1 and 8 was induced in vitro (Wilson et al., supra; Margolin et al., supra; and Earnshaw et al., supra), and the effect of purified recombinant C/EBPβ peptides, produced as described previously (Descombes et al., supra; and Buck et al., (1994), supra) on this process was determined. […]

hepatic stellate cells = experiment: Apoptosis of stellate cells on collagen type I incubated with cell permeant peptides; format: cell-based, mouse; details: collagen type I matrix, tetrapeptides 10 μM, Chariot reagent, 4 h
Experimental: as §1, with “Ala^217). […]” for “Ala^217).”
Fluorescent labels were observed using a triple-channel fluorescence microscope. […] The number of annexin V (+) cells was determined by in vivo microscopy as known in the art (See, Rudel and Bokoch, supra) among all cells or those expressing the GFP indicator protein either co-transfected with C/EBPβ proteins, or alone. […] At least 1000 cells were analyzed per experimental point, including at least 100 cells expressing the transfected DNA (Buck and Chojkier, EMBO J., 15:1753-1765 (1996); Buck et al., (1994), supra; and Buck et al., (1999), supra). […] Nuclear morphology was analyzed by staining cells with Hoechst 33342 (Molecular Probes). […]

C/EBPβ+/+ stellate cells = experiment: Annexin-V-PE assay of stellate cells treated with lactacystin; format: cell-based, mouse; details: lactacystin 0-30 μM, 6 hours after treatment began
Experimental: as §2

[2] = tested on: C/EBPβ-Ala^217 stellate cells; experiment: Apoptosis of stellate cells from C/EBPβ-Ala^217 transgenic mice, Hoechst 33342 nuclear staining; format: cell-based, mouse; details: collagen type I; IETD or transfection 1 μg
Experimental: FIG. 2 provides results showing increased apoptosis in hepatic stellate cells from C/EBPβ^−/− and C/EBPβ-Ala^217 transgenic mice. […] Six hours after cultivation, an annexin-V-PE binding assay was performed (P<0.05 for C/EBPβ^−/− and C/EBPβ-Ala^217). […] Apoptotic cells are indicated with arrowheads.
Fluorescent labels were observed using a triple-channel fluorescence microscope. The fluorochromes utilized were FITC and Texas red (Molecular Probes). The number of annexin V (+) cells was determined by in vivo microscopy as known in the art (See, Rudel and Bokoch, supra) among all cells or those expressing the GFP indicator protein either co-transfected with C/EBPβ proteins, or alone. These values are reported herein as a percentage of annexin V (+) for cells expressing the transfected DNA. At least 1000 cells were analyzed per experimental point, including at least 100 cells expressing the transfected DNA (Buck and Chojkier, EMBO J., 15:1753-1765 (1996); Buck et al., (1994), supra; and Buck et al., (1999), supra). […] Nuclear morphology was analyzed by staining cells with Hoechst 33342 (Molecular Probes). […]

procaspase 8 = procaspase 8 (Homo sapiens, UniProt Q14790); details: cited from earlier work
Chain of procaspase 8 (Q14790 whole entry): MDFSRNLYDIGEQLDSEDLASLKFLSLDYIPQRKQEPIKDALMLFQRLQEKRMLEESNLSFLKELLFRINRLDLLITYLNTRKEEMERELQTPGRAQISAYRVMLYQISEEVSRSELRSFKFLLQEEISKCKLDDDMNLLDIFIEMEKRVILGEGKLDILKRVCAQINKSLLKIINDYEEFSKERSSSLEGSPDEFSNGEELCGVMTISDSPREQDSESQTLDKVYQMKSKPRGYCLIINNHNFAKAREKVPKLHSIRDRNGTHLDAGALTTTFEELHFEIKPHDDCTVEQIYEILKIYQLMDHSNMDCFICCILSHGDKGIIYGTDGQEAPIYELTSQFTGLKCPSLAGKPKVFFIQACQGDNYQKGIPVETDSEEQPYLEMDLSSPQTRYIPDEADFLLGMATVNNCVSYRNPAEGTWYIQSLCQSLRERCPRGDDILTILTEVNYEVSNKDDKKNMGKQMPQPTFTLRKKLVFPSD

T1 sequence (Q14790 217-479): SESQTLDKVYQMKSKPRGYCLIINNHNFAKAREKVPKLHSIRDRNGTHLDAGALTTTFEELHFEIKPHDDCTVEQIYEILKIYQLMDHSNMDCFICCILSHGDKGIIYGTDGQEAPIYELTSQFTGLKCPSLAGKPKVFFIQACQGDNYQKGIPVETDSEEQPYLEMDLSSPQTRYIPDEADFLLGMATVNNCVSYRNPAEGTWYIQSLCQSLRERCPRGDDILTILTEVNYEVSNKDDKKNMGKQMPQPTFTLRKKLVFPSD

Inhibition of in vitro self-activation of caspase 8 (caspase 8): inhibited the in vitro self-activation | Inhibition of in vitro self-activation of caspase 1 (caspase 1): inhibited the in vitro self-activation
Molecule: Ac-KE^217VD-CHO (Ac-KEVD-aldehyde; SMILES CC(=O)N[C@@H](CCCCN)C(=O)N[C@@H](CCC(=O)O)C(=O)N[C@H](C(=O)N[C@H](C=O)CC(=O)O)C(C)C) [cell permeant synthetic N-acetyl, C-aldehyde tetrapeptide, phosphorylation mimic domain of C/EBPβ]
Rescue of stellate cells from apoptosis [1]: rescued these cells from apoptosis

Molecule: Ac-KA^217VD-CHO
Induction of apoptosis of stellate cells (hepatic stellate cells): induced apoptosis

Inhibition of in vitro self-activation of caspase 8 (caspase 8): inhibited the in vitro self-activation
Molecule: Ac-KKPD^105-CHO (Ac-KKPD-aldehyde; SMILES CC(=O)N[C@@H](CCCCN)C(=O)N[C@@H](CCCCN)C(=O)N1CCC[C@H]1C(=O)N[C@H](C=O)CC(=O)O) [cell permeant synthetic N-acetyl, C-aldehyde tetrapeptide, phosphorylation mimic domain of rC/EBPβ]
Rescue of stellate cells from apoptosis [1]: rescued these cells from apoptosis

Molecule: Ac-K-Phospho-T^217VD-CHO (Ac-K[pT]VD-aldehyde; SMILES CC(=O)N[C@@H](CCCCN)C(=O)N[C@H](C(=O)N[C@H](C(=O)N[C@H](C=O)CC(=O)O)C(C)C)[C@@H](C)OP(=O)(O)O) [synthetic N-acetyl, C-aldehyde C/EBPβ 216-219-PThr^217 tetrapeptide]
Inhibition of in vitro self-activation of caspase 8 (caspase 8): inhibited the in vitro self-activation | Inhibition of in vitro self-activation of caspase 1 (caspase 1): inhibited the in vitro self-activation

Molecule: CC(=O)N[C@@H](CSC(=O)[C@]1([C@@H](O)C(C)C)NC(=O)[C@H](C)[C@@H]1O)C(=O)O [Lactacystin, lactacystin]
Stellate cell apoptosis (C/EBPβ+/+ stellate cells): significant and rapid increase

Molecule: IETD [reference compound]
Block of apoptosis of C/EBPβ-Ala^217 stellate cells [2]: blocked

Molecule: DEVD-CHO
Ki (procaspase 8): 12 nM
